{"source": "patent US4562202A", "about": "“N-Acyl hexahydroindole-2-carboxylic acids and anti-hypertensive use thereof” (Hoechst Aktiengesellschaft, priority 1982, dated 1985)"}
{"system": "pressor reaction induced by angiotensin I", "test": "Inhibition of the pressor reaction induced by 310 ng of angiotensin I, intraduodenal administration to the anaesthetized rat", "format": "in vivo", "conditions": "0.5 h, 310 ng angiotensin I, 30 min. after administration, read-out: ED50 (50% inhibition of the pressor reaction induced by 310 ng of angiotensin I 30 min. after administration)", "method": "intraduodenal administration to the anaesthetized rat, 50% inhibition of the pressor reaction induced by 310 ng of angiotensin I 30 min. after administration in the dose . . . =ED50 : […]", "units": {"ED50": "mg/kg"}}
{"smiles": "CCOC(=O)[C@H](CC(=O)c1ccccc1)N[C@@H](C)C(=O)N1[C@@H]2C=CCC[C@@H]2C[C@H]1C(=O)O", "note": "[N-(1S-carboethoxy-3-oxophenylpropyl)-S-alanyl-cis-2,3,3a,4,5,7a-hexahydro[1H]indole-2S-exocarboxylic acid]", "ED50": 0.5}
{"smiles": "CCOC(=O)[C@H](CCc1ccccc1)N[C@@H](C)C(=O)N1C(C(=O)O)CC2CCC=CC21", "note": "(stereo partly drawn) [N-(1S-carboethoxy-3-phenylpropyl)-S-alanyl-cis-2,3,3a,4,5,7a-hexahydro[1H]indole-2R,S-endo-carboxylic acid]", "ED50": 0.08}
{"smiles": "C[C@H](N[C@@H](CCc1ccccc1)C(=O)O)C(=O)N1[C@H](C(=O)O)C[C@@H]2CCC=C[C@@H]21", "note": "[N-(1S-carboxy-3-phenylpropyl)-S-alanyl-cis-2,3,3a,4,5,7a-hexahydro[1H]indole-2S-endo-carboxylic acid]", "ED50": 0.6}
{"smiles": "C[C@H](N[C@@H](CCc1ccccc1)C(=O)O)C(=O)N1[C@@H]2C=CCC[C@@H]2C[C@H]1C(=O)O", "note": "[N-(1S-carboxy-3-phenylpropyl)-S-alanyl-cis-2,3,3a,4,5,7a-hexahydro[1H]indole-2S-exo-carboxylic acid]", "ED50": 0.7}
{"smiles": "CCOC(=O)[C@H](CCc1ccccc1)N[C@@H](C)C(=O)N1[C@@H]2C=CCC[C@@H]2C[C@H]1C(=O)O", "note": "[N-(1S-carboethoxy-3-phenylpropyl)-S-alanyl-cis-2,3,3a,4,5,7a-hexahydro[1H]indole-2S-exo-carboxylic acid]", "ED50": 0.07}
{"smiles": "CCOC(=O)[C@H](CCc1ccccc1)N[C@@H](C)C(=O)N1[C@H](C(=O)O)C[C@@H]2CCC=C[C@@H]21", "note": "[N-(1S-carboethoxy-3-phenylpropyl)-S-alanyl-cis-2,3,3a,4,5,7a-hexahydro [1H]indole-2S-endo-carboxylic acid]", "ED50": 0.04}
{"smiles": "CCOC(=O)[C@H](CC(=O)c1ccccc1)N[C@@H](C)C(=O)N1[C@H](C(=O)O)C[C@@H]2CCC=C[C@@H]21", "note": "[N-(1S-carboethoxy-3-oxo-3-phenylpropyl)-S-alanyl-cis-2,3,3a,4,5,7a-hexahydro[1H]indole-2S-endocarboxylic acid]", "ED50": 0.39}
